This passage reports TGI results from PubChem BioAssay (NCI).

What all share (test): NCI anticancer screen, dose series, 48 h
Assay [1] relates to OVCAR-4 ovarian.
The test system of assay [2] is A498 renal.
In assay [3] the test system is SW-620 colon.
Assay [4] has as its system NCI/ADR-RES ovarian.
In assay [5] the test system is SK-MEL-28 melanoma.
Assay [6] concerns CCRF-CEM leukemia.
In assay [7] the test system is OVCAR-3 ovarian.
The test system of assay [8] is HT29 colon.
Assay [9] concerns PC-3 prostate.
Assay [10] concerns SK-OV-3 ovarian.
Assay [11] deals with DU-145 prostate.
The test system of assay [12] is SNB-19 CNS.
Assay [13] deals with UACC-257 melanoma.
Assay [14] deals with MOLT-4 leukemia.
For assay [15], the system named is SR leukemia.
In assay [16] the test system is HL-60(TB) leukemia.
The test system of assay [17] is K-562 leukemia.
Assay [18] deals with NCI-H522 lung.
Assay [19] relates to T-47D breast.

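Briefly, cells in 96-well plates were exposed to five compound concentrations for 48 h, and endpoints were estimated by linear interpolation. The concentration for full growth arrest is given as TGI.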

Take `COc1ccc(-c2csc(Cc3nc4c(Br)cc(Br)cc4c(=O)n3-c3ccc(OC)cc3)n2)cc1`: the TGI in assay [1], in assay [2], in assay [3], in [4], in assay [5] and in [6] was over 100 µM throughout. Also, the TGI in assay [7] is over 100 µM; in [8] it was over 100 µM; in [9] it was over 100 µM; in assay [10], over 100 µM; in assay [11], over 100 µM; in [12] it was 50.6 µM. The TGI in assay [13] and in [14] was over 100 µM in each case.
With `COC(=O)Cc1c([C@H]2[C@H](CC(=O)OC)c3ccccc3N2S(=O)(=O)c2ccc(C)cc2)[nH]c2ccccc12`, the TGI in assay [15] is over 84.9 µM; in [1] it was over 100 µM; in assay [2], over 100 µM; in assay [3] it was over 100 µM; in [4] it was over 100 µM; in [5] it was over 100 µM. In addition, the TGI in assay [16], in [6], in assay [7], in assay [17], in assay [8] and in [9] was over 100 µM throughout. The TGI in assay [10], in [11], in assay [12], in assay [13], in [18] and in assay [14] was over 100 µM throughout.
Take `CN1C(=O)C(C(=O)Nc2ccccn2)C2C[C@@]1(C)Oc1ccccc12` (stereo partly drawn): the TGI in [1], in assay [2], in assay [3], in assay [4], in [5] and in assay [16] was over 100 µM throughout. The TGI in assay [6], in [7], in assay [17], in assay [8], in [9] and in [10] was over 100 µM throughout. Further, the TGI in assay [11], in [12], in [13], in assay [18] and in assay [14] was over 100 µM in each case.
On to `CCOC(=O)CSC1NC(C(=O)OC)CC1OC` (stereo not drawn), for which the TGI in assay [1], in assay [2], in assay [3], in assay [4], in assay [5] and in assay [6] was over 100 µM throughout. The TGI in [7], in [17], in assay [8], in assay [9], in assay [10] and in assay [11] was over 100 µM throughout. For the same molecule, the TGI in assay [12], in [13], in assay [18] and in assay [14] was over 100 µM throughout.
Turning to `CC(=O)Oc1c2ccsc2c(OC(C)=O)c2ccsc12`, the TGI in assay [15] is 0.88 µM; in assay [1], 1.73 µM; in assay [2], 3.29 µM; in assay [4], 1.23 µM; in assay [5] it was 1.24 µM; in [16] it was over 26.5 µM. Moreover, the TGI in [6] is over 21.4 µM; in assay [7], 6.54 µM; in assay [17] it was over 100 µM; in [8], 4.45 µM; in assay [10], 9.93 µM; in [11] it was 0.833 µM. Moreover, the TGI in assay [12] turned out to be 3.17 µM; in assay [19], 4.09 µM; in assay [13] it was 0.4 µM; in assay [18], 1.15 µM; in assay [14], 4.47 µM.
With `O=C1c2ccccc2C(=O)c2c(NC(=O)C3CC3)ccc(NC(=O)C3CC3)c21`, the TGI in [15], in assay [2], in assay [3], in assay [4], in assay [5] and in assay [16] was over 100 µM throughout. In addition, the TGI in assay [7], in assay [17], in assay [8], in assay [9], in assay [12] and in assay [19] was over 100 µM in each case. For the same molecule, the TGI in assay [13], in [18] and in assay [14] was over 100 µM each time.
As to `C=CCCCN1CCCC(C)C1=S` (stereo not drawn), the TGI in assay [15], in [1], in [2], in [3], in assay [5] and in assay [16] was over 100 µM throughout. Moreover, the TGI in assay [6], in assay [7], in [17], in assay [8], in [10] and in [12] was over 100 µM each time. The TGI in assay [13], in assay [18] and in assay [14] was over 100 µM each time.
In the case of `COC(=O)c1ccc(C)cc1CC1Cc2cccc(C)c2C1=O` (stereo not drawn), the TGI in [1] was 95.8 µM; in [3], over 100 µM; in [4], 66.3 µM; in assay [5], 55.7 µM; in assay [6], 51.3 µM; in assay [7] it was 30.7 µM. For the same molecule, the TGI was 9.79 µM in [17]; 6.06 µM in [8]; 64.8 µM in assay [9]; 92 µM in [10]; over 100 µM in assay [11]; over 100 µM in [12]. In addition, the TGI in assay [19] was 57.9 µM; in assay [13] it was 47.9 µM; in assay [18], 6.57 µM; in assay [14], 18.4 µM.
For the molecule `Nc1cccc(OCC2CCCN3CCCCC23)c1` (stereo not drawn), the TGI was determined as 47.2 µM in assay [1]; 28.2 µM in assay [2]; 39.4 µM in assay [3]; 38.3 µM in assay [4]; 35.7 µM in assay [5]; 39.7 µM in [16]. Further, the TGI is 34.4 µM in assay [6]; 38.2 µM in assay [7]; 76.1 µM in [17]; 25.1 µM in assay [8]; 37.7 µM in assay [9]; over 100 µM in assay [10]. Besides, the TGI in assay [11] came out at 32.6 µM; in assay [12], 32.8 µM; in [19] it was 33.8 µM; in [13] it was 34.3 µM; in [14], 39.2 µM.
Take `N#CC(C#N)=c1c2ccccc2c(=C(C#N)C#N)c2ccccc12`: the TGI was found to be 54.9 µM in [2]; 82.8 µM in assay [3]; 72.4 µM in assay [4]; 48.3 µM in assay [5]; 59.2 µM in assay [16]; 50.9 µM in assay [6]. Besides, the TGI is 30 µM in [7]; over 100 µM in assay [17]; 39.5 µM in [8]; 30.4 µM in assay [9]; 44.4 µM in assay [10]; 32.4 µM in assay [12]. The TGI in assay [13] is 51.2 µM; in assay [14], over 100 µM.
For `Nc1cc2ncnn2c(SCC(=O)N/N=C/C(Br)=C\c2ccccc2)n1`, the TGI in [15] is over 100 µM; in assay [3], 30.5 µM; in assay [4], 91.8 µM; in assay [5] it was 37.6 µM; in [16] it was 62.4 µM; in assay [6], over 100 µM. Besides, the TGI in assay [7] was 40.5 µM; in assay [17], over 100 µM; in [8], 28 µM; in assay [9] it was 27.7 µM; in assay [12] it was over 100 µM; in assay [19], 9.35 µM. For the same molecule, the TGI in assay [13] was determined as 25.3 µM; in [18], 22.9 µM; in [14] it was 71.7 µM.
Consider `COC(=O)CN1C(=O)C2(C(=O)OC)OC1(c1ccc([N+](=O)[O-])cc1)C1C(=O)N(c3ccccc3)C(=O)C12` (stereo not drawn), for which the TGI in assay [1], in [2], in assay [3], in assay [4], in [5] and in assay [16] was over 100 µM throughout. Besides, the TGI in [6], in assay [8], in [9], in [10], in assay [11] and in assay [12] was over 100 µM in each case. Moreover, the TGI in assay [19], in assay [13], in [18] and in assay [14] was over 100 µM in each case.
In the case of `CN(/N=C/c1ccccn1)C1=NCCCN1`, the TGI in [15], in assay [1], in [2], in assay [3], in [4] and in assay [5] was over 100 µM each time. Further, the TGI in [16], in [6], in assay [7], in assay [17], in [8] and in [9] was over 100 µM in each case. Moreover, the TGI in assay [10], in [12], in assay [19], in assay [13], in assay [18] and in assay [14] was over 100 µM in each case.
